These are literature values, as cited in patent US5731007A, “Pharmaceutical composition for skin diseases” (Yungjin Pharmaceutical Co., Ltd., priority 1994, dated 1998).

Entries after “also recorded” stand apart in the source; their conditions may differ. Where a name gives a salt, the structure may show the parent alone.

The test system of this data set is gram positive and negative bacteria. The note with it: including strains resistant to antibiotics such as kanamycin.

Regarding `CNC[C@@H]1CC[C@@H](N)[C@@H](O[C@H]2[C@H](O)[C@@H](O[C@H]3OC[C@](C)(O)[C@H](NC)[C@H]3O)[C@H](N)C[C@@H]2N)O1` [Micronomicin sulfate, micronomicin sulfate], the “antibacterial activity” value is “wide antibacterial spectrum against both gram positive and negative bacteria; also recorded: effective bacteriocidal activity against infections by strains resistant to various antibiotics such as kanamycin”.
